From the NIST ThermoML archive (doi:10.1021/je050399c)
Numbers after ± are expanded uncertainties.

Conditions: Fluid (supercritical or subcritical phases), Vibrating wire viscometry

N#N [nitrogen]
Conditions	viscosity [mPa·s]
348.15 K, 25007 kPa	0.02543 ± 0.00012
348.15 K, 26007 kPa	0.02571 ± 0.00012
348.15 K, 27005 kPa	0.02598 ± 0.00012
348.15 K, 27995 kPa	0.02628 ± 0.00012
348.15 K, 29000 kPa	0.02655 ± 0.00012
348.15 K, 30021 kPa	0.02687 ± 0.00012
348.15 K, 31015 kPa	0.02717 ± 0.00012
348.15 K, 32013 kPa	0.02747 ± 0.00013
348.15 K, 33000 kPa	0.02776 ± 0.00013
348.15 K, 34013 kPa	0.02808 ± 0.00013
348.15 K, 34919 kPa	0.02833 ± 0.00014
373.15 K, 100.3 kPa	0.02102 ± 0.0001
373.15 K, 200.1 kPa	0.02106 ± 9.1e-05
373.15 K, 301 kPa	0.02108 ± 9e-05
373.15 K, 400.2 kPa	0.02109 ± 8.7e-05
373.15 K, 600.7 kPa	0.0211 ± 8.7e-05
373.15 K, 800.6 kPa	0.02112 ± 8.8e-05
373.15 K, 1000.5 kPa	0.02114 ± 8.8e-05
373.15 K, 1501.2 kPa	0.0212 ± 8.8e-05
373.15 K, 2002.1 kPa	0.02125 ± 8.8e-05
373.15 K, 2501.4 kPa	0.02131 ± 8.9e-05
373.15 K, 3003.5 kPa	0.02137 ± 8.9e-05
373.15 K, 3503.3 kPa	0.02144 ± 9e-05
373.15 K, 4010 kPa	0.0215 ± 9e-05
373.15 K, 4501.6 kPa	0.02157 ± 9.1e-05
373.15 K, 5007.4 kPa	0.02164 ± 9.2e-05
373.15 K, 5504.7 kPa	0.02172 ± 9.3e-05
373.15 K, 6000.6 kPa	0.0218 ± 9.3e-05
373.15 K, 6507.4 kPa	0.02188 ± 9.3e-05
373.15 K, 7006.9 kPa	0.02194 ± 9.3e-05
373.15 K, 7500.7 kPa	0.02203 ± 9.5e-05
373.15 K, 8002.7 kPa	0.02211 ± 9.5e-05
373.15 K, 8504.3 kPa	0.0222 ± 9.5e-05
373.15 K, 9002.1 kPa	0.02228 ± 9.7e-05
373.15 K, 9499.1 kPa	0.02238 ± 9.7e-05
373.15 K, 10010 kPa	0.02247 ± 9.8e-05
373.15 K, 11006 kPa	0.02267 ± 9.9e-05
373.15 K, 12000 kPa	0.02284 ± 0.0001
373.15 K, 13002 kPa	0.02307 ± 0.0001
373.15 K, 14010 kPa	0.02327 ± 0.0001
373.15 K, 15013 kPa	0.02348 ± 0.0001
373.15 K, 16013 kPa	0.0237 ± 0.00011
373.15 K, 17018 kPa	0.02392 ± 0.00011
373.15 K, 18001 kPa	0.02414 ± 0.00011
373.15 K, 19005 kPa	0.0244 ± 0.00011
373.15 K, 19977 kPa	0.02462 ± 0.00011
373.15 K, 21015 kPa	0.02487 ± 0.00011
373.15 K, 22011 kPa	0.0251 ± 0.00011
373.15 K, 23004 kPa	0.02536 ± 0.00011
373.15 K, 24005 kPa	0.02559 ± 0.00011
373.15 K, 25012 kPa	0.02584 ± 0.00012
373.15 K, 26006 kPa	0.0261 ± 0.00012
373.15 K, 27007 kPa	0.02635 ± 0.00012
373.15 K, 28017 kPa	0.02662 ± 0.00012
373.15 K, 29005 kPa	0.02688 ± 0.00012
373.15 K, 30003 kPa	0.02714 ± 0.00012
373.15 K, 31001 kPa	0.02741 ± 0.00012
373.15 K, 32010 kPa	0.02765 ± 0.00012
373.15 K, 33011 kPa	0.02792 ± 0.00013
373.15 K, 34006 kPa	0.02821 ± 0.00013
373.15 K, 34834 kPa	0.02844 ± 0.00013
398.15 K, 100.1 kPa	0.02203 ± 0.0001
398.15 K, 200.9 kPa	0.02207 ± 9.4e-05
398.15 K, 300.8 kPa	0.02209 ± 9.5e-05
398.15 K, 400.5 kPa	0.0221 ± 9.3e-05
398.15 K, 600.3 kPa	0.02212 ± 9.1e-05
398.15 K, 800.5 kPa	0.02213 ± 9e-05
398.15 K, 1001 kPa	0.02215 ± 9.2e-05
398.15 K, 1501.8 kPa	0.0222 ± 9.1e-05
398.15 K, 2001.3 kPa	0.02225 ± 9.2e-05
398.15 K, 2495.8 kPa	0.02231 ± 9.2e-05
398.15 K, 3000.7 kPa	0.02236 ± 9.3e-05
398.15 K, 3501.8 kPa	0.02242 ± 9.3e-05
398.15 K, 4002.8 kPa	0.02247 ± 9.3e-05
398.15 K, 4503.1 kPa	0.02254 ± 9.4e-05
398.15 K, 5003.7 kPa	0.0226 ± 9.4e-05
398.15 K, 5502.6 kPa	0.02266 ± 9.5e-05
398.15 K, 6004.9 kPa	0.02273 ± 9.5e-05
398.15 K, 6501.8 kPa	0.0228 ± 9.5e-05
398.15 K, 7005.3 kPa	0.02287 ± 9.6e-05
398.15 K, 7507.1 kPa	0.02294 ± 9.7e-05
398.15 K, 8007.6 kPa	0.02302 ± 9.8e-05
398.15 K, 8501 kPa	0.02311 ± 9.8e-05
398.15 K, 9010.3 kPa	0.02317 ± 9.7e-05
398.15 K, 9506.9 kPa	0.02324 ± 9.9e-05
398.15 K, 10005 kPa	0.02334 ± 0.0001
398.15 K, 11003 kPa	0.0235 ± 0.0001
398.15 K, 11989 kPa	0.02369 ± 0.0001
398.15 K, 13002 kPa	0.02386 ± 0.0001
398.15 K, 13997 kPa	0.02405 ± 0.0001
398.15 K, 15013 kPa	0.02423 ± 0.0001
398.15 K, 16005 kPa	0.02443 ± 0.00011
398.15 K, 17010 kPa	0.02463 ± 0.00011
398.15 K, 18010 kPa	0.02482 ± 0.00011
398.15 K, 19003 kPa	0.02503 ± 0.00011
398.15 K, 20019 kPa	0.02525 ± 0.00011
398.15 K, 21009 kPa	0.02546 ± 0.00011
398.15 K, 22011 kPa	0.02568 ± 0.00011
398.15 K, 23034 kPa	0.0259 ± 0.00011
398.15 K, 23993 kPa	0.0261 ± 0.00011
398.15 K, 25001 kPa	0.02634 ± 0.00012
398.15 K, 25977 kPa	0.02657 ± 0.00012
398.15 K, 27031 kPa	0.02679 ± 0.00012
398.15 K, 28028 kPa	0.02703 ± 0.00012
398.15 K, 29028 kPa	0.02728 ± 0.00012
398.15 K, 29911 kPa	0.02747 ± 0.00012
398.15 K, 31023 kPa	0.02773 ± 0.00012
398.15 K, 32013 kPa	0.02796 ± 0.00012
398.15 K, 33034 kPa	0.02822 ± 0.00012
398.15 K, 34043 kPa	0.02845 ± 0.00012
398.15 K, 35040 kPa	0.02872 ± 0.00013
423.15 K, 100.1 kPa	0.02302 ± 0.00011
423.15 K, 200.1 kPa	0.02305 ± 9.9e-05
423.15 K, 300.4 kPa	0.02307 ± 9.8e-05
423.15 K, 400.1 kPa	0.02309 ± 9.6e-05
423.15 K, 600.2 kPa	0.0231 ± 9.4e-05
423.15 K, 800.3 kPa	0.02312 ± 9.4e-05
423.15 K, 1001.1 kPa	0.02313 ± 9.4e-05
423.15 K, 1502.5 kPa	0.02318 ± 9.5e-05
423.15 K, 1997.8 kPa	0.02322 ± 9.5e-05
423.15 K, 2498 kPa	0.02327 ± 9.5e-05
423.15 K, 3002.3 kPa	0.02332 ± 9.6e-05
423.15 K, 3505.8 kPa	0.02337 ± 9.6e-05
423.15 K, 4004 kPa	0.02342 ± 9.7e-05
423.15 K, 4501.2 kPa	0.02348 ± 9.7e-05
423.15 K, 5002.7 kPa	0.02353 ± 9.7e-05
423.15 K, 5502.8 kPa	0.02358 ± 9.8e-05
423.15 K, 6002.2 kPa	0.02365 ± 9.9e-05
423.15 K, 6502.3 kPa	0.02372 ± 9.8e-05
423.15 K, 7003 kPa	0.02377 ± 9.8e-05
423.15 K, 7497.9 kPa	0.02384 ± 0.0001
423.15 K, 8004.2 kPa	0.02391 ± 0.0001
423.15 K, 8503 kPa	0.02398 ± 0.0001
423.15 K, 9004.2 kPa	0.02405 ± 0.0001
423.15 K, 9504.3 kPa	0.02412 ± 0.0001
423.15 K, 10006 kPa	0.02418 ± 0.0001
423.15 K, 11004 kPa	0.02434 ± 0.0001
423.15 K, 11994 kPa	0.02451 ± 0.0001
423.15 K, 13002 kPa	0.02466 ± 0.0001
423.15 K, 14011 kPa	0.02483 ± 0.00011
423.15 K, 15002 kPa	0.025 ± 0.00011
423.15 K, 16009 kPa	0.02517 ± 0.00011
423.15 K, 17009 kPa	0.02535 ± 0.00011
423.15 K, 17999 kPa	0.02554 ± 0.00011
423.15 K, 19008 kPa	0.02573 ± 0.00011
423.15 K, 20008 kPa	0.02591 ± 0.00011
423.15 K, 20987 kPa	0.02609 ± 0.00011
423.15 K, 22009 kPa	0.0263 ± 0.00011
423.15 K, 23014 kPa	0.02651 ± 0.00011
423.15 K, 24019 kPa	0.02669 ± 0.00012
423.15 K, 25024 kPa	0.02691 ± 0.00012
423.15 K, 26017 kPa	0.02711 ± 0.00012
423.15 K, 27035 kPa	0.02732 ± 0.00012
423.15 K, 28010 kPa	0.02753 ± 0.00012
423.15 K, 29015 kPa	0.02774 ± 0.00012
423.15 K, 30011 kPa	0.02794 ± 0.00012
423.15 K, 31001 kPa	0.02815 ± 0.00012
423.15 K, 31988 kPa	0.02837 ± 0.00012
423.15 K, 32989 kPa	0.02859 ± 0.00012
423.15 K, 34020 kPa	0.02882 ± 0.00012
423.15 K, 35050 kPa	0.02903 ± 0.00012
